# Laboratory results: patent publication US8217172B2, “Solid forms of 1-ethyl-3-(5-(5-fluoropyridin-3-yl)-7-(pyrimidin-2-yl)-1H-benzo[d]imidazol-2-yl)urea” (Vertex Pharmaceuticals Incorporated, priority 2007, dated 2012)
# Tests used:
# Assay type in all cases: physicochemical
# [1] = Stability analysis (chemical stability by HPLC, physical stability by XRPD); conditions: for chemically and physically stable for at least about / chemically and physically stable for at least about (e.g. value): various storage conditions, including 40° C./75% RH (e.g., open container)
# Description: In some embodiments, less than 25% of the form of Compound 1 decomposes, in some embodiments, less than about 20%, less than about 15%, less than about 10%, less than about 5%, less than about 3%, less than about 1%, less than about 0.5% of the form of Compound 1 decomposes under the conditions specified. In some embodiments, no detectable amount of the form of Compound 1 decomposes.
# In some embodiments, less than 25% of the form of Compound 1 changes into one or more different physical forms when subjected to specified conditions, In some embodiments, less than about 20%, less than about 15%, less than about 10%, less than about 5%, less than about 3%, less than about 1%, less than about 0.5% of the form of Compound 1 changes into one or more different physical forms of Compound 1 when subjected to specified conditions. In some embodiments, no detectable amount of the form of Compound 1 changes into one or more different physical forms of Compound 1.
# [2] = Solubility in various media (equilibration on a shaking bed for 24 hours, HPLC); conditions: for Solubility, Actual Conc / Solubility in 0.05M Buffers, Actual Conc: 24 h equilibration; for Solubility, Total Conc: ambient, 24 h
# Experimental: Solubility: The solubility of form IA in various media was determined at ambient conditions by equilibrating aliquots of the drug powder with the solvents on a shaking bed for 24 hours. The samples were centrifuged, the saturated solutions of the drug were then separated and analyzed by HPLC. The sample volume was 100 μL and the target concentration was 10 mg/mL. The saturated solutions were diluted appropriately and analyzed by HPLC.
# Solubility: Solubility of form IIC in various media was determined at ambient conditions by equilibrating aliquots of the drug powder with the solvents on a shaking bed for 24 hours. Samples were spun and the supernatant was carefully separated and analyzed by HPLC at the 24-hour timepoint using a stability-indicating method. […] Some variability may occur between lots of a particular sample.
# Solubility: Solubility of form IIIB in various media was determined at ambient conditions by equilibrating aliquots of the drug powder with the medium on a shaking bed for 24 hours. The samples were centrifuged, the saturated solutions of the drug were then separated and analyzed by HPLC. The sample volume was 100 μL, and the target concentration was 10 mg/ml. The saturated solutions were diluted appropriately and analyzed by HPLC.
# [3] = Dynamic Vapor Sorption (DVS), step isothermal study; conditions: 25° C.; for release of adsorbed water in the desorption stage: 95% to 5% RH; for moisture picked up at 95% relative humidity (RH): adsorption 5% to 95% RH; for weight gain from 5% to 95% relative humidity: step isothermic study (DVS)
# Experimental: Dynamic Vapor Sorption (DVS): A step isothermal study (25° C.) was conducted on a representative sample of form IA using a VTI SGA 100 Symmetric Vapor Sorption Analyzer. An aliquot of approximately 10 mg was weighed in an open platinum dish and exposed to different levels of humidity at 25° C. Relative humidity (RH) steps were from 5% to 95% (adsorption) and from 95% to 5% in increments of 5% RH (desorption). The equilibration criterion was 0.0100 wt % change in 5 min, with a max equilibration time of 180 min. The sample picked up ˜8 wt % moisture at 95% relative humidity (RH).
# Dynamic Vapor Sorption (DVS): A step isothermal study (25° C.) was conducted on a sample of form IIA using a VTI SGA 100 Symmetric Vapor Sorption Analyzer. An aliquot of approximately 10 mg was weighed in an open platinum dish and exposed to different levels of humidity at 25° C. Relative humidity (RH) steps were from 5% to 95% (adsorption) and from 95% to 5% in increments of 5% RH (desorption). The equilibration criterion was 0.0100 wt % change in 5 min, with a max equilibration time of 180 min. The material picked up ˜11 wt % moisture at 95% relative humidity (RH).
# Dynamic Vapor Sorption (DVS): A step isothermal study (25° C.) was conducted on a sample of form IIC using a VTI SGA 100 Symmetric Vapor Sorption Analyzer. An aliquot of approximately 10 mg was weighed in an open platinum dish and exposed to different levels of humidity at 25° C. Relative humidity (RH) steps were from 5% to 95% (adsorption) and from 95% to 5% in increments of 5% RH (desorption). The equilibration criterion was 0.0100 wt % change in 5 min, with a max equilibration time of 180 min. The material picked up ˜4 wt % moisture at 95% relative humidity (RH).
# Water Vapor Sorption analysis: Vapor Sorption analysis of a sample of form IIIB was done using a SGA-100 Vapor Sorption Analyzer (VTI, Hialeah, Fla.). A sample with weight of approximately 7-12 mg was measured isothermally at 25° C. Data was collected by Isotherm software and analyzed by Microsoft Excel with a VTI macro (VTI, Hialeah, Fla.). The sample gained about 4.6% in weight from 5 to 95% RH (25° C.).
# [4] = aqueous solution, pH of about 1.6
structure (smiles),measurement,setting,value
"CCNC(=O)Nc1nc2cc(-c3cncc(F)c3)cc(-c3ncccn3)c2[nH]1.CCS(=O)(=O)O [Form IIA, 1-ethyl-3-(5-(5-fluoropyridin-3-yl)-7-(pyrimidin-2-yl)-1H-benzo[d]imidazol-2-yl)urea•monoesylate]",change of solid form on storage,[1]; 40° C./75% RH for about 24 hours or for about 2 weeks,converted to form IIB
same,solubility,[2]; [4],> 150 mg/mL
same,release of adsorbed water in the desorption stage,[3]; DVS,Not all of the adsorbed water was released
same,moisture picked up at 95% relative humidity (RH),[3]; DVS,~11 wt %
same,weight gain from 5% to 95% relative humidity,[3],about 10%
"CCNC(=O)Nc1nc2cc(-c3cncc(F)c3)cc(-c3ncccn3)c2[nH]1.CCS(=O)(=O)O [Form IIB, 1-ethyl-3-(5-(5-fluoropyridin-3-yl)-7-(pyrimidin-2-yl)-1H-benzo[d]imidazol-2-yl)urea•monoesylate]",solubility,[2]; [4],> 150 mg/mL
"CCNC(=O)Nc1nc2cc(-c3cncc(F)c3)cc(-c3ncccn3)c2[nH]1.CCS(=O)(=O)O [Form IIC, 1-ethyl-3-(5-(5-fluoropyridin-3-yl)-7-(pyrimidin-2-yl)-1H-benzo[d]imidazol-2-yl)urea•monoesylate]",chemically and physically stable for at least about,[1],at least 2 weeks
same,chemically and physically stable for at least about (e.g. value),[1],at least 6 months
same,"Solubility, Actual Conc","[2]; 0.1N HCl, pH 1.10, target 100 mg/ml",105 mg/mL
same,"Solubility, Actual Conc","[2]; 0.5% Methylcellulose (MC)/0.5% Sodium Lauryl Sulfate (SLS), pH 1.58, target 100 mg/ml",94.8 mg/mL
same,"Solubility, Actual Conc","[2]; 0.9% Sodium Chloride, target 100 mg/ml",33.6 mg/mL
same,"Solubility, Actual Conc","[2]; 1% Deoxycholic sodium salt (DOSS), pH 1.71, target 150 mg/ml",125 mg/mL
same,"Solubility, Actual Conc","[2]; 1% Docusate, pH 1.58, target 150 mg/ml",159 mg/mL
same,"Solubility, Actual Conc","[2]; 1% Pluronic F68, pH 1.57, target 150 mg/ml",155 mg/mL
same,"Solubility, Actual Conc","[2]; 1% Pluronic F108, pH 1.58, target 150 mg/ml",159 mg/mL
same,"Solubility, Actual Conc","[2]; 1% SLS, pH 1.56, target 150 mg/ml",126 mg/mL
same,"Solubility, Actual Conc","[2]; 1% Tween 80, pH 1.60, target 150 mg/ml",130 mg/mL
same,"Solubility, Actual Conc","[2]; 4% Glycerol, pH 1.59, target 150 mg/ml",162 mg/mL
same,"Solubility, Actual Conc","[2]; 10% Cremophor, pH 1.64, target 150 mg/ml",137 mg/mL
same,"Solubility, Actual Conc","[2]; 10% Polyvinyl pyrrolidone (PVP) K30, pH 1.70, target 150 mg/ml",152 mg/mL
same,"Solubility, Actual Conc","[2]; 10% Solutol, pH 1.61, target 150 mg/ml",170 mg/mL
same,"Solubility, Actual Conc","[2]; 10% Tween 80, pH 1.64, target 150 mg/ml",144 mg/mL
same,"Solubility, Actual Conc","[2]; 10% Vitamin E TPGS, pH 1.58, target 150 mg/ml",138 mg/mL
same,"Solubility in 0.05M Buffers, Actual Conc","[2]; Potassium chloride hydrochloric acid, pH 1, experimental pH 1.01",113 mg/mL
same,"Solubility in 0.05M Buffers, Actual Conc","[2]; Potassium phosphate monobasic-sodium hydroxide, pH 7",48.2 mg/mL
same,"Solubility in 0.05M Buffers, Actual Conc","[2]; Potassium phosphate monobasic-sodium hydroxide, pH 9, experimental pH 1.75",67.0 mg/mL
same,"Solubility, Actual Conc","[2]; Tetraglucol:Water (1:1), pH 2.08, target 50 mg/ml",29.6 mg/mL
same,"Solubility, Actual Conc","[2]; Water, pH 1.60, target 150 mg/ml",152 mg/mL
same,solubility,[2]; [4],> 150 mg/mL
same,"Solubility, Actual Conc","[2]; pH 7 Tris Buffer, target 100 mg/ml",30.0 mg/mL
same,hydrate formation,"[3]; DVS, 5% to 95% RH",did not form a hydrate
same,release of adsorbed water in the desorption stage,[3]; DVS,All adsorbed water was released
same,moisture picked up at 95% relative humidity (RH),[3]; DVS,~4 wt %
"CCNC(=O)Nc1nc2cc(-c3cncc(F)c3)cc(-c3ncccn3)c2[nH]1.CCS(=O)(=O)O [Form IID, 1-ethyl-3-(5-(5-fluoropyridin-3-yl)-7-(pyrimidin-2-yl)-1H-benzo[d]imidazol-2-yl)urea•monoesylate]",solubility,[2]; [4],> 150 mg/mL
"CCNC(=O)Nc1nc2cc(-c3cncc(F)c3)cc(-c3ncccn3)c2[nH]1.CS(=O)(=O)O [Form IIIB, 1-ethyl-3-(5-(5-fluoropyridin-3-yl)-7-(pyrimidin-2-yl)-1H-benzo[d]imidazol-2-yl)urea•monomesylate]",chemically and physically stable for at least about,[1],at least 2 weeks
same,chemically and physically stable for at least about (e.g. value),[1],at least 1 months
same,"Solubility, Total Conc","[2]; Captisol, 20%",3.81 mg/mL
same,"Solubility, Total Conc","[2]; Captisol, 30%, pH 7",0.634 mg/mL
same,"Solubility, Total Conc",[2]; Ethanol,0.439 mg/mL
same,"Solubility, Total Conc","[2]; HCl, 0.1N",12.2 mg/mL
same,"Solubility, Total Conc",[2]; Miglyol810,0.0219 mg/mL
same,"Solubility, Total Conc",[2]; Octanol,0.0584 mg/mL
same,"Solubility, Total Conc",[2]; PEG400,0.729 mg/mL
same,"Solubility, Total Conc","[2]; PluronicF108, 1%",>12.0 mg/mL
same,"Solubility, Total Conc",[2]; PropyleneGlycol,5.74 mg/mL
same,"Solubility, Total Conc",[2]; SGF,>12.0 mg/mL
same,"Solubility, Total Conc",[2]; SIF,0.0284 mg/mL
same,"Solubility, Total Conc","[2]; SodiumLaurylSulfate, 1%",0.623 mg/mL
same,"Solubility, Total Conc","[2]; TrisBuffer, pH 7",0.0276 mg/mL
same,"Solubility, Total Conc","[2]; Vitamin E TPGS, 10%, 1% HPMC",>12.0 mg/mL
same,"Solubility, Total Conc","[2]; Vitamin E TPGS, 10%",11.5 mg/mL
same,"Solubility, Total Conc",[2]; Water,>12.0 mg/mL
same,solubility,[2]; at pH of about 4.4,> 12 mg/mL
same,solubility,[2]; in simulated gastric fluid (SGF),> 12 mg/mL
same,weight gain from 5% to 95% relative humidity,[3],about 4.6%
CCNC(=O)Nc1nc2cc(-c3cncc(F)c3)cc(-c3ncccn3)c2[nH]1.CCS(=O)(=O)O [crystalline 1-ethyl-3-(5-(5-fluoropyridin-3-yl)-7-(pyrimidin] [1-ethyl-3-(5-(5-fluoropyridin-3-yl)-7-(pyrimidin-2-yl)-1H-benzo[d]imidazol-2-yl)urea.monoesylate],remains chemically stable for at least about,[1]; 40° C./75% relative humidity,at least 2 weeks
same,remains in substantially the same physical form for at least,[1]; 40° C./75% relative humidity,at least 6 months
same,remains in substantially the same physical form for at least about,[1]; 40° C./75% relative humidity,at least 2 weeks
same,solubility,[2]; [4],greater than 150 mg/ml
